Results on 58 molecules are retold here after the RepoRT retention time repository.

Each structure is given as a SMILES string.

This data set is described as follows: HILIC, Waters ACQUITY UPLC BEH Amide, 100 × 2.1 mm, 1.7 µm; A: water + 0.125% formic acid + 10 mM ammonium formate; B: 5% water + 95% acetonitrile + 0.125% formic acid + 10 mM ammonium formate; gradient (min/%B) 0/100 2/100 7.7/70 9.5/40 10.25/30 12.75/100 17/100. Particulars: stereoisomer not certain.
Take `C=CCC1C=C(C)CC(C)CC(OC)C2OC(O)(C(=O)C(=O)N3CCCCC3C(=O)OC(C(C)=CC3CCC(O)C(OC)C3)C(C)C(O)CC1=O)C(C)CC2OC` (stereo not drawn) [Tacrolimus]: the LC retention time was 1.07 min. In the case of `CN1CC(=O)N2C(Cc3c([nH]c4ccccc34)C2c2ccc3c(c2)OCO3)C1=O` (stereo not drawn) [Taldalafil], the LC retention time was 1.19 min. In the case of `CN=C(N)NCCCC(N)C(=O)O` (stereo not drawn) [Targinine], the LC retention time came out at 9.22 min. For the molecule `NCCS(=O)(=O)O` [Taurine], the LC retention time amounted to 7.85 min.

For `CC(CCC(=O)NCCS(=O)(=O)O)C1CCC2C3C(O)CC4CC(O)CCC4(C)C3CC(O)C12C` (stereo not drawn) [Taurocholic acid], the LC retention time was 6.12 min. Consider `O=C1c2c(O)cc(O)cc2OC(c2ccc(O)c(O)c2)C1O` (stereo not drawn) [Taxifolin], for which the LC retention time came out at 1.78 min.

For `O=c1[nH]c(=O)n(C2CCCO2)cc1F` (stereo not drawn) [Tegafur], the LC retention time was determined as 1.22 min. Regarding `CCCCCN=C(N)NN=Cc1c[nH]c2ccc(OC)cc12` [Tegaserod], the LC retention time was 2.84 min. Take `CCCc1nc2c(C)cc(-c3nc4ccccc4n3C)cc2n1Cc1ccc(-c2ccccc2C(=O)O)cc1` [Telmisartan]: the LC retention time was 1.25 min. As for `CN1C(=O)C(O)N=C(c2ccccc2)c2cc(Cl)ccc21` (stereo not drawn) [Temazepam], the LC retention time amounted to 1.15 min. Consider `Cn1nnc2c(C(N)=O)ncn2c1=O` [Temozolomide], for which the LC retention time came to 1.33 min. On to `COc1cc2nc(N3CCN(C(=O)C4CCCO4)CC3)nc(N)c2cc1OC` (stereo not drawn) [Terazosin], for which the LC retention time is 4.66 min. In the case of `CN(CC=CC#CC(C)(C)C)Cc1cccc2ccccc12` [Terbinafine], the LC retention time came out at 1.33 min.

Turning to `CC12CCC(=O)C=C1CCC1C2CCC2(C)C(O)CCC12` (stereo not drawn) [Testosterone], the LC retention time turned out to be 1.05 min.

As for `CCNC(=O)CCC(N)C(=O)O` (stereo not drawn) [Theanine], the LC retention time was found to be 7.66 min.

`Cn1c(=O)c2[nH]cnc2n(C)c1=O` [Theophylline]: the LC retention time was 1.54 min.

`O=C(O)C1CSCN1` (stereo not drawn) [Thiazolidine-4-carboxylic acid]: the LC retention time worked out at 6.92 min. As for `N=c1ccc2nc3ccc(N)cc3sc-2c1` [Thionin], the figure is 5.23 min.

For the molecule `OCC(O)C(O)CO` (stereo not drawn) [Threitol], the LC retention time worked out at 1.56 min.

Consider `Cc1cn(C2CC(O)C(CO)O2)c(=O)[nH]c1=O` (stereo not drawn) [Thymidine], for which the LC retention time is 2.57 min.

As to `Cc1cn(C2CC(O)C(COP(=O)(O)O)O2)c(=O)[nH]c1=O` (stereo not drawn) [Thymidine 5'-monophosphate], the LC retention time was 8.28 min. Take `Cc1ccc(C(C)C)c(O)c1` [Thymol]: the LC retention time was determined as 1.53 min. With `Cc1ccsc1C(=CCCN1CCCC(C(=O)O)C1)c1sccc1C` (stereo not drawn) [Tiagabine], the LC retention time was 3.94 min.

For `C#CC1(O)CCC2C3C(C)CC4=C(CCC(=O)C4)C3CCC21C` (stereo not drawn) [Tibolone], the LC retention time came out at 1 min.

Regarding `Clc1ccccc1CN1CCc2sccc2C1` [Ticlopidine], the LC retention time was determined as 1.12 min. Turning to `CCS(=O)(=O)CCn1c([N+](=O)[O-])cnc1C` [Tinidazole], the LC retention time was 1.04 min.

As to `Cc1cccc(C)c1NC(=O)C(C)N` (stereo not drawn) [Tocainide], the LC retention time was 4.97 min. With `Cc1ccc(O)c(C(CCN(C(C)C)C(C)C)c2ccccc2)c1` (stereo not drawn) [Tolterodine], the LC retention time came out at 2.13 min. For the molecule `CCCc1c(OCCCCc2nn[nH]n2)ccc(C(C)=O)c1O` [Tomelukast], the LC retention time stood at 1.04 min.

Regarding `CC1(C)OC2COC3(COS(N)(=O)=O)OC(C)(C)OC3C2O1` (stereo not drawn) [Topiramate], the LC retention time turned out to be 1.1 min. For `CCC1(O)C(=O)OCc2c1cc1n(c2=O)Cc2cc3c(CN(C)C)c(O)ccc3nc2-1` (stereo not drawn) [Topotecan], the LC retention time was found to be 5.72 min. Take `O=C(c1ccccc1)c1ccc2n1CCC2C(=O)O` (stereo not drawn) [Toradol]: the LC retention time amounted to 1.29 min. As for `Cc1cccc(Nc2ccncc2S(=O)(=O)NC(=O)NC(C)C)c1` [Torasemide], the LC retention time was 1.45 min. With `CN(C)CCOc1ccc(C(=C(CCCl)c2ccccc2)c2ccccc2)cc1` [Toremifene], the LC retention time turned out to be 1.89 min. As for `NC1CCN(c2nc3c(cc2F)c(=O)c(C(=O)O)cn3-c2ccc(F)cc2F)C1` (stereo not drawn) [Tosufloxacin], the LC retention time amounted to 4.87 min. For `COc1cccc(C2(O)CCCCC2CN(C)C)c1` (stereo not drawn) [Tramadol], the LC retention time was 2.52 min. The value for `COc1ccc(C=CC(=O)Nc2ccccc2C(=O)O)cc1OC` [Tranilast] was 1.26 min.

Consider `O=c1n(CCCN2CCN(c3cccc(Cl)c3)CC2)nc2ccccn12` [Trazodone], for which the LC retention time was 2.38 min. The value for `O=P(O)(O)OCC1OC(OC2OC(CO)C(O)C(O)C2O)C(O)C(O)C1O` (stereo not drawn) [Trehalose-6-phosphate] was 9.72 min. For the molecule `O=C(OC1C(Oc2ccccc2COC(=O)C2(O)C=CCCC2=O)OC(CO)C(O)C1O)c1ccccc1` (stereo not drawn) [Tremulacin], the LC retention time is 1.51 min. As to `Cc1nnc2n1-c1ccc(Cl)cc1C(c1ccccc1Cl)=NC2` [Triazolam], the LC retention time stood at 1.3 min.

As for `CSc1nc2cc(Oc3cccc(Cl)c3Cl)c(Cl)cc2[nH]1` [Triclabendazole], the LC retention time came to 1.01 min. As to `CN1CCN(CCCN2c3ccccc3Sc3ccc(C(F)(F)F)cc32)CC1` [Trifluoperazine], the LC retention time amounted to 2.15 min. Take `NC(=O)N1c2ccccc2CC(=O)c2ccccc21` [Trileptal]: the LC retention time came out at 1.13 min.

`CCC(COC(=O)c1cc(OC)c(OC)c(OC)c1)(c1ccccc1)N(C)C` (stereo not drawn) [Trimebutine]: the LC retention time worked out at 1.47 min. For `CC(CN(C)C)CN1c2ccccc2CCc2ccccc21` (stereo not drawn) [Trimipramine], the LC retention time was 2.25 min.

Regarding `CN(C)CCN(Cc1ccccc1)c1ccccn1` [Tripelennamine], the LC retention time is 1.98 min. Consider `CC(C)C12OC1C1OC13C1(C)CCC4=C(COC4=O)C1CC1OC13C2O` (stereo not drawn) [Triptolide], for which the LC retention time came to 1.02 min. As for `CN1C2CCC1CC(OC(=O)c1c[nH]c3ccccc13)C2` (stereo not drawn) [Tropisetron], the figure is 3.81 min; as for `COc1cc(C(=O)NC2CCCNC2)cc(OC)c1OC` (stereo not drawn) [Troxipide], 5.04 min. As to `NCCc1c[nH]c2ccccc12` [Tryptamine], the LC retention time was 6.92 min.

With `c1ccc2c3c([nH]c2c1)CNCC3` [Tryptoline], the LC retention time was 4.9 min.

Take `NC(Cc1c[nH]c2ccccc12)C(=O)O` (stereo not drawn) [Tryptophan]: the LC retention time was determined as 6.92 min.

On to `NC(=O)C(N)Cc1c[nH]c2ccccc12` (stereo not drawn) [Tryptophanamide], for which the LC retention time was 5.91 min.

Take `NC(Cc1ccc(O)cc1)C(=O)NC(Cc1ccc(O)cc1)C(=O)NC(Cc1ccc(O)cc1)C(=O)O` (stereo not drawn) [Tyr-Tyr-Tyr]: the LC retention time is 7.09 min. As for `NC(Cc1ccc(O)cc1)C(=O)NC(Cc1ccc(O)cc1)C(=O)O` (stereo not drawn) [Tyr-Tyr], the figure is 7.38 min; as for `NCCc1ccc(O)cc1` [Tyramine], 5.58 min. Regarding `NC(Cc1ccc(O)cc1)C(=O)O` (stereo not drawn) [Tyrosine], the LC retention time stood at 7.61 min.
